Source: patent US12370209B2, “Methods for the use of 5′-adenosine diphosphate ribose (ADPR)” (Invirsa, Inc., priority 2016, dated 2025)
Entries after “also recorded” stand apart in the source; their conditions may differ. Like-named read-outs stand apart in the source and are kept apart here.

Legend:
[1] = tested on: tumor necrosis factor alpha (TNF-α) mediated cytotoxicity; conditions: in vitro, levels as low as; cited from earlier work
adenovirus serotype 3 [2] = assay: Plaque inhibition of adenovirus serotype 3 by ADPR and lithium chloride (Example 2); format: cell-based, Adenovirus serotype 3 (Ad3)
adenovirus serotype 3 [3] = assay: Adenovirus plaque inhibition assay in A549 cells (Example 1); format: cell-based, Adenovirus serotype 3 (Ad3)
A549 cell monolayers [4] = conditions: human
[5] = tested on: AsPC1—human pancreatic adenocarcinoma; assay: CellTiter-Glo cell viability assay, AsPC1; format: cell-based
[6] = tested on: H1437—human, lung adenocarcinoma, non-small cell lung cancer; assay: CellTiter-Glo cell viability assay, H1437; format: cell-based
[7] = tested on: MV411—human, myelomonocytic leukemia; assay: CellTiter-Glo cell viability assay, MV411; format: cell-based
[8] = tested on: U87-MG—human, brain glioblastoma; assay: CellTiter-Glo cell viability assay, U87-MG; format: cell-based
A549 cell monolayers [9] = tested on: A549 cell monolayers
[10] = tested on: A549 (human alveolar adenocarcinoma) cell culture; assay: MTT incorporation in A549 cell culture (Example 8); format: cell-based; conditions: for Average MTT incorporation as measured by OD560: 48 hours
Procedure: ADPR, sodium Salt, (Sigma A0752), was tested in A549 (human alveolar adenocarcinoma) cell culture to determine its effect on replication. ADPR was evaluated at five concentrations by incubation for 48 hours with A549 cells (previously grown to a monolayer) at 37° C. After incubation, MTT (3-(4,5-dimethylthiaz ol-2-yl)-2,5-diphenyltetrazolium bromide) dye was added to each well and live cells were measured by blue dye incorporation.

A549 cells = assay: Thinning of the A549 monolayer in the plaque assay (Example 5); format: cell-based, human
Procedure: (§1) A549 cells were plated 7×10^4 cells per well in 6-well plates. After 18 hours, growth media was removed and 1 mL of each sample mixtures was added per well. After incubating for one hour at 37° C., approximately 50-75 plaque forming units Ad3 and separately Ad5 were added per well. Virus adsorbed to the cells for two hours and then media was aspirated from the monolayers and replaced with Virus Growth Media containing Sample A dilutions of 0, 0.5, 1.0, 2.0, and 4.0 mg/mL, and agarose.
Ad3 and Ad5 plaque size and number were reduced by Sample A at 4 mg/mL and 2 mg/mL. […] The thin monolayer made it hard to delineate plaques. Very few plaques were visible as compared to control. […] Mean plaque counts at Sample A concentrations were as follows: • Ad3: 4 mg/mL-29; 2 mg/mL-10; 1 mg/mL-44; 0.5 mg/mL-54; 0 mg/mL-55 • Ad5: 4 mg/mL-7; 2 mg/mL-7; 1 mg/mL-25; 0.5 mg/mL-53; 0 mg/mL-65 Conclusion

Adenovirus 5 = assay: Plaque inhibition by dilithium ADPR, Ad5 in A549 cells (Example 5); format: cell-based, Adenovirus 5 (Ad5); conditions: 4, 2, 1 and 0.5 mg/mL
Procedure: (§2) Dilithium ADPR, 150 mg powder, was stored in a glass vial (“Sample A”) at 4° C. in the dark until use. On the day of assay, Sample A was solubilized to 200 mg/ml in 750 μL water for irrigation, then further diluted to target concentrations. […] Solubilized Sample A was tested for plaque inhibitory properties against Adenovirus 3 and Adenovirus 5 (Ad3 & Ad5).
(§3) Solubilized Sample A was diluted to 4 mg/mL, 2 mg/mL, 1 mg/mL and 0.5 mg/mL in Virus Growth Media (DMEM, 2% Fetal Bovine Serum (FBS) and antibiotic, antimycotic).
as §1

Adenovirus 3 = assay: Plaque inhibition by dilithium ADPR, Ad3 in A549 cells (Example 5); format: cell-based, Adenovirus 3 (Ad3); conditions: 4, 2, 1 and 0.5 mg/mL
Procedure: as §2, §3, §1

A549 cell monolayers [11] = assay: Toxicity score on A549 cell monolayers (Example 1)
A549 cell monolayers [12] = assay: Toxicity score on A549 cell monolayers (Example 2)
[13] = tested on: Adenovirus serotype 5 (Ad5); assay: Viral keratoconjunctivitis model, modified McDonald-Shadduck scoring (Example 6); format: in vivo, Oryctolagus cuniculus (New Zealand White rabbits)
Excerpt: • Species: Oryctolagus cuniculus • Strain: New Zealand White rabbits • Sex: Female • Age: Commensurate with weight • Weight: Approximately 2.5 to 3.0 kilograms at study start • Number: 8 (naïve) • Method of Identification: Ear tag and cage label • Minimum Acclimation: 5 days
• 1. Inoculum—Adenovirus serotype 5 (Ad5) • (a) Physicochemical Characteristics and Composition Description: Virus propagated in A549 cells in DMEM with 8% fetal bovine serum. Cells and supernatant harvested, sonicated, and clarified by low speed centrifugation. Infectious titer by TCID50: 5.0×109 plaque-forming-units (PFU) per mL. • (b) Storage Condition: frozen at −60 to −80° C. • 2. Test Article—Dilithium ADPR • (a) Molecular weight: approximately 571.18 • (b) Storage Condition: Refrigerated at 2-8° C. • 3. Control Vehicle • (a) Composition: 0.31% sodium chloride, 0.1% sodium tetraborate, 1% boric acid, 0.35% polyethylene glycol 300 (PEG-300) in deionized (DI) water • (b) Storage Condition: Refrigerated at 2° C.-8° C. • 4. Test/Control Article Preparation • (a) Ad5 was supplied in a single aliquot for both days of inoculation. Immediately prior to the first viral inoculation on Day −1, the virus was thawed and brought to room temperature. 0.05 mL (50 μL) of the 5.0×10^9 PFU Ad5/mL solution was diluted with 1.5 mL of Dulbecco's Modified Eagle Medium (DMEM) to create a 1.61×10^8 PFU Ad5/mL solution. After the first inoculation on Day −1, the remaining virus solution was stored refrigerated at 2-8° C. until the second inoculation on Day 0. Virus solution was not re-frozen. • (b) Vehicle: 55.8 mg sodium chloride, 18 mg of sodium tetraborate, 180 mg of boric acid, and 63 mg of PEG-300 were weighed out into a vial. 14 mL DI water was added, and vial contents were swirled, vortexed, and/or sonicated if needed until a clear solution is formed. The pH of the solution was tested using pH tester strips and adjusted to 7.0-7.2, if necessary, using sodium hydroxide (NaOH) or additional boric acid. The volume was then brought up to 18 mL with additional DI water to make a 0.31% sodium chloride, 0.1% sodium tetraborate, 1% boric acid, 0.35% PEG-300 solution. The vial contents were sterile filtered through a 0.2 or 0.22 μm filter. • (c) Dilithium ADPR—High Dose: 240 mg of dilithium ADPR was weighed out into a vial. 12 mg of sodium tetraborate, 120 mg of boric acid, and 42 mg of PEG-300 were weighed out into a separate vial. 7 mL DI water was added, and vial contents were swirled, vortexed, and/or sonicated if needed until a clear solution is formed. The solution was transferred to the vial containing dilithium ADPR. The volume was brought up to […] with DI water, and vial contents were swirled, vortexed, and/or sonicated if needed until a clear solution is formed. […]

[14] = AsPC1, 72 hours treatment, average of two values
[15] = H1437, 72 hours treatment, average of two values
[16] = MV411, 72 hours treatment, average of two values
[17] = U87-MG, 72 hours treatment, average of two values
[18] = 0.5%, 1% and 2% topical TID, Day 3 and Day 7 compared to baseline on Day 1, p<0.01

Compound: Nc1ncnc2c1ncn2[C@@H]1O[C@H](COP(=O)(O)OP(=O)(O)OC[C@H]2OC(O)[C@H](O)[C@@H]2O)[C@@H](O)[C@H]1O (some centres unmarked) [ADPR, 5′-adenosine diphosphate ribose]
- ADPR level with measurable inhibition of TNF-α mediated cytotoxicity [1]: 5 mg/L

Compound: Nc1ccn(C[C@@H](CO)OCP(=O)(O)O)c(=O)n1 [Cidofovir]
- Plaque appearance (adenovirus serotype 3 [2]; 3 μM Cidofovir): small plaques
- Plaque appearance (adenovirus serotype 3 [2]; 33 μM Cidofovir): Pinpoint plaques
- Plaque Counts (adenovirus serotype 3 [3]; 20 μM Cidofovir): 39
- Plaque appearance (adenovirus serotype 3 [3]; 100 μM Cidofovir): pinpoint
- Plaque size and number (adenovirus serotype 3 [3]; cidofovir, as concentrations were increased (20, 100 μM)): decreased

Compound: NC(=O)c1cccnc1 [Compound N, Nicotinamide]
- Toxicity Scores (T value) (A549 cell monolayers [4]; 60 μg/ml): T = 0
- Toxicity Scores (T value) (A549 cell monolayers [4]; 600 μg/ml): T = 2
- Toxicity Scores (T value) (A549 cell monolayers [4]; 6000 μg/ml): T = 3
- Plaque appearance (adenovirus serotype 3 [3]; 600 μg/ml nicotinamide alone): much larger
- Plaque Counts (adenovirus serotype 3 [3]; Compound N 6000 μg/ml, 0 μg/ml Compound A, Ad3, A549): Toxic

Compound: CCc1c2c(nc3ccc(O)cc13)-c1cc3c(c(=O)n1C2)COC(=O)[C@]3(O)CC [SN38]
- IC50 [5, 14]: 1.5 µM
- IC50 [6, 15]: 0.2 µM
- IC50 [7, 16]: 1.17 µM
- IC50 [8, 17]: 1.2 µM

Compound: [Cl-].[Li+] [Sample L, Lithium Chloride]
- IC50 [5]: > 3000 µM
- Plaque appearance (adenovirus serotype 3 [2]): much larger; also recorded: very large plaques
- IC50 [6]: > 3000 µM
- IC50 [7]: > 6000 µM
- IC50 [8]: > 3000 µM
- Toxicity Scores (T value) (A549 cell monolayers [9]): T = 0

Compound: Adenosine 5′-diphosphoribose Sodium Salt [Compound A]
- Average MTT incorporation as measured by OD560 ([10]; 1.5 mg/mL): 0.62±0.08
- Average MTT incorporation as measured by OD560 ([10]; 3 mg/mL): 0.61±0.09
- Average MTT incorporation as measured by OD560 ([10]; 6 mg/mL): 0.72±0.04
- Average MTT incorporation as measured by OD560 ([10]; 12 mg/mL): 0.69±0.01
- Average MTT incorporation as measured by OD560 ([10]; 24 mg/mL): 0.55±0.02
- Effect on MTT incorporation ([10]; at 24 mg/mL): mild reduction
- Effect on MTT incorporation ([10]; up to 12 mg/mL (equal to 21 mM)): did not reduce
- Monolayer compared to cell control wells (A549 cells; 1 mg/mL and 0.5 mg/mL): slight thinning
- Monolayer compared to control wells (A549 cells; 4 and 2 mg/mL): moderate thinning
- Plaque size and number (Adenovirus 5): reduced
- Plaque size as compared to control (adenovirus serotype 3 [2]; Sample A at 0.44, 1.33 and 4.0 mM): reduced
- Plaque size and number (Adenovirus 3): reduced
- Toxicity Scores (T value) (A549 cell monolayers [11]; Compound A 2000 μg/ml): T = 0
- Toxicity Scores (T value) (A549 cell monolayers [11]; Compound A 6000 μg/ml): T = 0
- Toxicity Scores (T value) (A549 cell monolayers [12]; Sample A 0.44 mM): T = 0
- Toxicity Scores (T value) (A549 cell monolayers [12]; Sample A 1.33 mM): T = 0
- Toxicity Scores (T value) (A549 cell monolayers [12]; Sample A 4.0 mM): T = 0
- Plaque size as compared to control (adenovirus serotype 3 [3]; Compound A at 2000 and 6000 μg/ml): reduced

Compound: Dilithium ADPR
- IC50 [5, 14]: 570 µM
- Composite modified McDonald-Shadduck score (total of all sub scores) [13, 18]: significantly improved; also recorded: significant improvement
- Subscore conjunctival congestion [13, 18]: improvement that was statistically significant
- Subscore surface area of corneal involvement ([13]; 0.5%, 1% and 2% topical TID, Day 3 and Day 7 compared to baseline on Day 1, p<0.05): improvement that was statistically significant
- Reduction in the composite score ([13]; all doses (0.5%, 1.0% and 2.0%), by Day 7): > 80%
- IC50 [6, 15]: 531 µM
- IC50 [7, 16]: 323 µM
- IC50 [8, 17]: 1560 µM
